# Results as given in patent publication US20230293529A1, “DOSING REGIMENS FOR N-((5-FLUORO-2,3-DIHYDROBENZOFURAN-4-YL)METHYL)-8-(2-METHYLPYRIDIN-3-YL)-[1,2,4]TRIAZOLO[4,3-C]PYRIMIDIN-5-AMINE, OR A PHARMACEUTICALLY ACCEPTABLE SALT THEREOF, FOR USE IN TREATING PRC2-MEDIATED DISEASES OR DISORDERS” (Novartis AG, priority 2020, published 2023).
# Key:
# [1] = Pharmacokinetic profile of MAK683 in sequential blood samples, Phase I/II study; assay type: in vivo, human
# From the text: (§1) This study is a multicenter, open label, study to establish the maximum tolerated dose (MTD) and/or recommended phase 2 dose (RP2D) and to evaluate the safety, antitumor activity and pharmacokinetic (PK) profile of MAK683 (Compound (1) of MAK683 (Compound (1) in subjects with advanced malignancies such as Diffuse Large B cell Lymphoma (DLBCL), nasopharyngeal carcinoma (NPC) or other advanced solid tumors for whom no further effective standard treatment is available. The patients will be administered MAK683 single agent orally until they experience unacceptable toxicity, progressive disease and/or treatment discontinuation at the discretion of the investigator or patient or withdrawal of consent. The phase I part plans to enroll patients with relapsed/refractory DLBCL, advanced/ metastatic nasopharyngeal carcinoma with presence of p16/CDKN2A gene and other solid tumors including castration-resistant prostate cancer, gastric cancer, OCCC, sarcoma. All patients enrolled in this part of the study will receive escalating oral doses of MAK683 in fasted condition, unless significant GI toxicity is observed, in which case dosing with moderate-fat meals may be assessed. The starting dose and regimen for the MAK683 first-in-man clinical study is about 10 mg QD. Escalation will continue to about 20 mg, about 40 mg, about 80 mg, about 120 mg, about 160 mg, about 160 mg, about 240 mg, about 300 mg, about 500 mg or about 800 mg or until the MTD is reached or a RP2D is established based on emerging data.
# (§2) MAK683 was administered fasted once (QD) or twice daily (BID) on a continuous schedule in 28-day treatment cycles. The pharmacokinetic (PK) profile of MAK683 was assessed in sequential blood samples on Days 1, 8 and/or 15 of Cycles 1-6. MAK683 pharmacodynamic activity in Cycle 1, measured by change in H3K27me3, was evaluated in peripheral blood monocytes on Days 1, 8, and 15 by flow cytometry and in tumor biopsies at baseline and Day 15 by H-score.
# [2] = tested on: H3K27me3; experiment: Pharmacodynamic activity: change in H3K27me3 in peripheral blood monocytes by flow cytometry; assay type: in vivo, human
# Experimental: as §2
# [3] = tested on: H3K27me3; experiment: Pharmacodynamic activity: H3K27me3 in tumor biopsies by H-score; assay type: in vivo, human; settings: paired baseline-Day 15 tumor biopsies; diffuse large B-cell lymphoma (n=4) or sarcoma (n=6)
# Experimental: as §2
# [4] = tested on: advanced malignancies (DLBCL, nasopharyngeal carcinoma, other advanced solid tumors); experiment: Antitumor activity, overall response rate (ORR) in subjects with advanced malignancies; assay type: in vivo, human; settings: local assessment per Cheson 2014, RECIST v1.1 and PCWG2
# From the text: as §1, with “Escalation will continue to about 20 mg, about 40 mg, about 80 mg, about 120 mg, about 160 mg, about 160 mg, about 240 mg, about 300 mg, about 500 mg or about 800 mg or until the MTD is reached or a RP2D is established based on emerging data.” left out
# [5] = Safety, adverse events in Phase I/II study; assay type: in vivo; settings: patients with advanced malignancies, oral MAK683
# From the text: as §1, with “Escalation will continue to about 20 mg, about 40 mg, about 80 mg, about 120 mg, about 160 mg, about 160 mg, about 240 mg, about 300 mg, about 500 mg or about 800 mg or until the MTD is reached or a RP2D is established based on emerging data.” left out
smiles,measurement,setting,value
"Cc1ncccc1-c1cnc(NCc2c(F)ccc3c2CCO3)n2cnnc12 [MAK683, N-((5-fluoro-2,3-dihydrobenzofuran-4-yl)methyl)-8-(2-methylpyridin-3-yl)-[1,2,4]triazolo[4,3-c]pyrimidin-5-amine]",PK exposure (Cmax and AUC) dose proportionality,[1]; 800 mg QD,over-proportional
same,PK exposure (Cmax and AUC) dose proportionality,[1]; 10-500 mg QD and 60-450 mg BID,variable and broadly dose-proportional
same,accumulation after multiple doses (Racc),[1]; after multiple doses,0.8-2.3
same,half-life,"[1]; human, blood, oral, across cohorts, unchanged after multiple doses, read-out: Apparent terminal half-life (geometric mean)",2.5 to 5.2 h
same,Tmax,"[1]; human, blood, patients, oral, fasted, 10-800 mg QD or 60-450 mg BID, read-out: median Tmax",~1 h
same,Time to steady-state,"[1]; patients, QD or BID continuous dosing",~3 days
same,H3K27me3/H3 ratio change from baseline in peripheral monocytes,"[2]; Cycle 1, Days 1, 8, 15, across doses",substantial on-treatment reductions from baseline
same,"Maximum percentage reduction of H3K27me3/H3 ratio, relation to exposure",[2]; peripheral monocytes,proportional to cumulative MAK683 AUC
same,patients with H3K27me3 H-score reductions from baseline >40,[3],7/10
same,positive endpoint: improved overall response rate (ORR),[4],met at least one of the above endpoints
same,adverse events,[5],mild to moderate and did not lead to discontinuation
